# Assay results as given in ChEMBL document CHEMBL4251629, “BODIPYs to the rescue: Potential applications in photodynamic inactivation” (2018).
# Columns and labels:
# Escherichia coli [1] = assay: Photodynamic antibacterial activity against ROS-induced stressed Escherichia coli ATCC 25922 assessed as log reduction in viable cells at 10 uM preincubated for 30 mins followed by 3.6 J/cm2 irradiation for 1 hr mins by fluorescence microscopy; assay type: functional
# Staphylococcus aureus [2] = assay: Photodynamic antibacterial activity against Staphylococcus aureus ATCC 25923 assessed as log reduction in viable cells at 1 uM preincubated for 30 mins followed by immediate irradiation at 21 J/cm2 in presence of 50 mM KI by fluorescence microscopy; assay type: functional
# Candida albicans [3] = assay: Photodynamic antibacterial activity against Candida albicans PC31 assessed as log reduction in viable cells at 5 uM preincubated for 30 mins followed by immediate irradiation at 126 J/cm2 in presence of 50 mM KI by fluorescence microscopy; assay type: functional
# Escherichia coli [4] = assay: Photodynamic antibacterial activity against Escherichia coli EC7 assessed as log reduction in viable cells at 5 uM preincubated for 30 mins followed by immediate irradiation at 63 J/cm2 in presence of 50 mM KI by fluorescence microscopy; assay type: functional
# Candida albicans [5] = assay: Photodynamic antifungal activity against Candida albicans ATCC 90028 assessed as log reduction in viable cells at 1 uM in presence of 118 J/cm2 irradiation; assay type: functional
# [6] = system: Vesicular stomatitis virus; assay: Photodynamic antiviral activity against vesicular stomatitis virus NJ infected in African green monkey Vero cells assessed as log reduction in viable cells at 0.5 uM in presence of 118 J/cm2 irradiation; assay type: functional, Vesicular stomatitis New Jersey virus
# [7] = system: Mycolicibacterium smegmatis; assay: Photodynamic antibacterial activity against Mycobacterium smegmatis MC2 155 assessed as log reduction in viable cells at 0.5 uM in presence of 118 J/cm2 irradiation; assay type: functional, str. MC2 155
# Pseudomonas aeruginosa = assay: Photodynamic antibacterial activity against Pseudomonas aeruginosa PAO1 assessed as log reduction in viable cells at 2.5 uM preincubated for 30 mins followed by 171 J/cm'2 irradiation for 1 hr by confocal laser scanning microscopy; assay type: functional
# dengue virus type 1 = assay: Photodynamic antiviral activity against Dengue virus 1 infected in African green monkey Vero cells assessed as log reduction in viable cells at 0.1 uM in presence of 118 J/cm2 irradiation; assay type: functional
# Nakaseomyces glabratus = assay: Photodynamic antifungal activity against Candida glabrata ATCC 15545 assessed as log reduction in viable cells at 1 uM in presence of 118 J/cm2 irradiation; assay type: functional
# Human adenovirus 5 = assay: Photodynamic antiviral activity against Human adenovirus 5 infected in African green monkey Vero cells assessed as log reduction in viable cells at 5 uM in presence of 118 J/cm2 irradiation; assay type: functional
# Cryptococcus neoformans = assay: Photodynamic antifungal activity against Cryptococcus neoformans ATCC 6453 assessed as log reduction in viable cells at 0.5 uM in presence of 118 J/cm2 irradiation; assay type: functional
# Escherichia coli [8] = assay: Photodynamic antibacterial activity against ROS-induced stressed Escherichia coli ATCC 25922 assessed as log reduction in viable cells at 10 uM preincubated for 1 hr followed by 9.36 J/cm2 irradiation for 2 hrs mins by fluorescence microscopy; assay type: functional
# Bacillus thuringiensis = assay: Photodynamic antibacterial activity against Bacillus thuringiensis NRS 1124 ATCC 19268 assessed as log reduction in viable cells at 10 uM preincubated for 20 mins followed by 180 J/cm2 irradiation for 60 mins by fluorescence microscopy; assay type: functional
# Klebsiella pneumoniae = assay: Photodynamic antibacterial activity against Klebsiella pneumoniae subsp. pneumoniae ATCC 33495 assessed as log reduction in viable cells at 10 uM preincubated for 20 mins followed by 180 J/cm2 irradiation for 60 mins by fluorescence microscopy; assay type: functional
# Staphylococcus aureus [9] = assay: Photodynamic antibacterial activity against Staphylococcus aureus NRS11 assessed as log reduction in viable cells at 10 uM preincubated for 20 mins followed by 180 J/cm2 irradiation for 60 mins by fluorescence microscopy; assay type: functional
# Escherichia coli [10] = assay: Photodynamic antibacterial activity against Escherichia coli DH5alpha assessed as log reduction in viable cells 10 uM preincubated for 20 mins followed by 180 J/cm2 irradiation for 60 mins by fluorescence microscopy; assay type: functional, DH5[alpha]
smiles,measurement,setting,value
CC(=O)OCC1c2c(C)c(Br)c(C)n2[B-](F)(F)[N+]2=C(C)C(Br)=C(C)C12 (configuration not stated),log(activity),Escherichia coli [1],5.5
CC1=CC(C)=[N+]2C1C(c1ccc(OCCC[N+](C)(C)C)cc1)c1c(C)cc(C)n1[B-]2(F)F (configuration not stated),log(activity),Staphylococcus aureus [2],4.5
same,log(activity),Candida albicans [3],3.5
same,log(activity),Escherichia coli [4],6.5
CC1=C(I)C(C)=[N+]2C1C(c1cc[n+](C)cc1)c1c(C)c(I)c(C)n1[B-]2(F)F (configuration not stated),log(activity),Candida albicans [5],5
same,log(activity),[6],5
same,log(activity),[7],3
same,log(activity),Pseudomonas aeruginosa,7
same,log(activity),dengue virus type 1,6
same,log(activity),Nakaseomyces glabratus,3
same,log(activity),Human adenovirus 5,2
same,log(activity),Cryptococcus neoformans,5
CC(=O)OCC1c2c(C)c(I)c(C)n2[B-](F)(F)[N+]2=C(C)C(I)=C(C)C12 (configuration not stated),log(activity),Escherichia coli [1],5.5
CC1=C(Br)C(C)=[N+]2C1C(CC1(C)CCc3c(C)c(O)c(C)c(C)c3O1)c1c(C)c(Br)c(C)n1[B-]2(F)F (configuration not stated),log(activity),Escherichia coli [8],5.5
CC1=C(C)C2(OO)OC(C)(CC3c4c(C)c(Br)c(C)n4[B-](F)(F)[N+]4=C(C)C(Br)=C(C)C34)CCC2=C(C)C1=O (configuration not stated),log(activity),Escherichia coli [8],5.5
CC1=C(I)C(C)=[N+]2C1C(c1cc(CN(Cc3ccccn3)Cc3ccccn3)cc(CN(Cc3ccccn3)Cc3ccccn3)c1)c1c(C)c(I)c(C)n1[B-]2(F)F (configuration not stated),log(activity),Bacillus thuringiensis,4.5
same,log(activity),Klebsiella pneumoniae,2.2
same,log(activity),Staphylococcus aureus [9],4.5
same,log(activity),Escherichia coli [10],3.5
CC1=CC(C)=[N+]2C1C(c1ccc([N+](C)(C)C)cc1)c1c(C)cc(C)n1[B-]2(F)F (configuration not stated),log(activity),Staphylococcus aureus [2],5
same,log(activity),Candida albicans [3],5.5
same,log(activity),Escherichia coli [4],3.5
